From PubChem BioAssay AID1963963 (Molecular Pharmacology Branch, DTP, NCI, 2024)

Test system: 958667-338-R-J2-PDC tumor spheroids viability
Experiment: Anticancer human tumor 958667-338-R-J2-PDC patient-derived colon adenocarcinoma cell line growth inhibition [PI3K]
Conditions: spheroids with HUVEC and MSC; for viability, T/C: stronger effect = lower value
Summary of the method: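 High-throughput combination screen: PI3K inhibitors crossed with targeted small molecules on complex spheroids of tumor cells, HUVEC and MSCs at 37 degrees C, 5% CO2. Top concentration was at or near clinical Cmax (otherwise 10 microM), with half-log decrements.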

[1] = curve of first compound, second compound 0.00316 µM
[2] = curve of first compound, second compound 0.01 µM
[3] = curve of first compound, second compound 0.0316 µM
[4] = curve of first compound, second compound 0.1 µM
[5] = curve of first compound, second compound 0.316 µM
[6] = curve of first compound, second compound 1 µM
[7] = second compound 0.00316 µM, first compound 0.0316 µM
[8] = second compound 0.00316 µM, first compound 0.1 µM
[9] = second compound 0.01 µM, first compound 0.0316 µM
[10] = second compound 0.01 µM, first compound 0.1 µM
[11] = second compound 0.0316 µM, first compound 0.0316 µM
[12] = second compound 0.0316 µM, first compound 0.1 µM
[13] = second compound 0.1 µM, first compound 0.0316 µM
[14] = second compound 0.1 µM, first compound 0.1 µM
[15] = second compound 0.316 µM, first compound 0.0316 µM
[16] = second compound 0.316 µM, first compound 0.1 µM
[17] = second compound 1 µM, first compound 0.0316 µM
[18] = second compound 1 µM, first compound 0.1 µM
[19] = second compound 0.0316 µM, first compound 0.316 µM
[20] = second compound 0.0316 µM, first compound 1 µM
[21] = second compound 0.0316 µM, first compound 3.16 µM
[22] = second compound 0.0316 µM, first compound 10 µM
[23] = second compound 0.1 µM, first compound 0.316 µM
[24] = second compound 0.1 µM, first compound 1 µM
[25] = second compound 0.1 µM, first compound 3.16 µM
[26] = second compound 0.1 µM, first compound 10 µM
[27] = second compound 0.316 µM, first compound 0.316 µM
[28] = second compound 0.316 µM, first compound 1 µM
[29] = second compound 0.316 µM, first compound 3.16 µM
[30] = second compound 0.316 µM, first compound 10 µM
[31] = second compound 1 µM, first compound 0.316 µM
[32] = second compound 1 µM, first compound 1 µM
[33] = second compound 1 µM, first compound 3.16 µM
[34] = second compound 1 µM, first compound 10 µM
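Further: spheroids exposed to compounds for seven days before readout.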

CC(C)n1nc(-c2ccc3oc(N)nc3c2)c2c(N)ncnc21 + COc1c(OCCCN2CCOCC2)ccc2c3n(c(=NC(=O)c4cnc(N)nc4)nc12)CCN3
IC50 [1]: 0.0778 µM
IC50 [2]: 0.0609 µM
IC50 [3]: 0.0228 µM
IC50 [4]: 0.00988 µM
IC50 [5]: < 0.000316 µM
IC50 [6]: < 0.000316 µM
viability, T/C (second compound 0.00316 µM, first compound 0.000316 µM): 88.1%
viability, T/C (second compound 0.00316 µM, first compound 0.001 µM): 112%
viability, T/C (second compound 0.00316 µM, first compound 0.00316 µM): 99.2%
viability, T/C (second compound 0.00316 µM, first compound 0.01 µM): 103%
viability, T/C [7]: 77.4%
viability, T/C [8]: 42.4%
viability, T/C (second compound 0.01 µM, first compound 0.000316 µM): 73.6%
viability, T/C (second compound 0.01 µM, first compound 0.001 µM): 70%
viability, T/C (second compound 0.01 µM, first compound 0.00316 µM): 85.2%
viability, T/C (second compound 0.01 µM, first compound 0.01 µM): 71.6%
viability, T/C [9]: 74.7%
viability, T/C [10]: 31.3%
viability, T/C (second compound 0.0316 µM, first compound 0.000316 µM): 69.6%
viability, T/C (second compound 0.0316 µM, first compound 0.001 µM): 74.5%
viability, T/C (second compound 0.0316 µM, first compound 0.00316 µM): 70%
viability, T/C (second compound 0.0316 µM, first compound 0.01 µM): 58.1%
viability, T/C [11]: 47%
viability, T/C [12]: 25.2%
viability, T/C (second compound 0.1 µM, first compound 0.000316 µM): 67.3%
viability, T/C (second compound 0.1 µM, first compound 0.001 µM): 66.1%
viability, T/C (second compound 0.1 µM, first compound 0.00316 µM): 62%
viability, T/C (second compound 0.1 µM, first compound 0.01 µM): 44.2%
viability, T/C [13]: 41%
viability, T/C [14]: 21.3%
viability, T/C (second compound 0.316 µM, first compound 0.000316 µM): 41.4%
viability, T/C (second compound 0.316 µM, first compound 0.001 µM): 37%
viability, T/C (second compound 0.316 µM, first compound 0.00316 µM): 34.7%
viability, T/C (second compound 0.316 µM, first compound 0.01 µM): 33.1%
viability, T/C [15]: 25.1%
viability, T/C [16]: 14.7%
viability, T/C (second compound 1 µM, first compound 0.000316 µM): 17.2%
viability, T/C (second compound 1 µM, first compound 0.001 µM): 16.5%
viability, T/C (second compound 1 µM, first compound 0.00316 µM): 13.6%
viability, T/C (second compound 1 µM, first compound 0.01 µM): 17.5%
viability, T/C [17]: 15.8%
viability, T/C [18]: 11.5%

CC(Cn1ccc(-c2ccc(C#N)c(Cl)c2)n1)NC(=O)c1cc(C(C)O)[nH]n1 (centres undefined) + CC(Nc1ccc2c(c1)OCCn1cc(N3C(=O)OCC3C(F)F)nc1-2)C(N)=O
IC50 [1]: > 10 µM
IC50 [2]: > 10 µM
IC50 [3]: > 10 µM
IC50 [4]: > 10 µM
IC50 [5]: > 10 µM
IC50 [6]: > 10 µM
viability, T/C [7]: 118%
viability, T/C [8]: 111%
viability, T/C (second compound 0.00316 µM, first compound 0.316 µM): 126%
viability, T/C (second compound 0.00316 µM, first compound 1 µM): 117%
viability, T/C (second compound 0.00316 µM, first compound 3.16 µM): 84.7%
viability, T/C (second compound 0.00316 µM, first compound 10 µM): 99.2%
viability, T/C [9]: 92.7%
viability, T/C [10]: 106%
viability, T/C (second compound 0.01 µM, first compound 0.316 µM): 77.4%
viability, T/C (second compound 0.01 µM, first compound 1 µM): 91.4%
viability, T/C (second compound 0.01 µM, first compound 3.16 µM): 90.6%
viability, T/C (second compound 0.01 µM, first compound 10 µM): 90.5%
viability, T/C [11]: 89.8%
viability, T/C [12]: 99.9%
viability, T/C [19]: 97.8%
viability, T/C [20]: 93%
viability, T/C [21]: 95%
viability, T/C [22]: 75.2%
viability, T/C [13]: 111%
viability, T/C [14]: 88.9%
viability, T/C [23]: 81.1%
viability, T/C [24]: 78.6%
viability, T/C [25]: 91.1%
viability, T/C [26]: 82.4%
viability, T/C [15]: 80%
viability, T/C [16]: 49.7%
viability, T/C [27]: 84.5%
viability, T/C [28]: 63.6%
viability, T/C [29]: 63.7%
viability, T/C [30]: 78.8%
viability, T/C [17]: 64.2%
viability, T/C [18]: 61.2%
viability, T/C [31]: 66.1%
viability, T/C [32]: 62.8%
viability, T/C [33]: 55.7%
viability, T/C [34]: 49.8%

C=CC(=O)N1CCN(c2nc(=O)n(-c3c(C)ccnc3C(C)C)c3nc(-c4c(O)cccc4F)c(F)cc23)C(C)C1 (centres undefined) + Cc1nc(NC(=O)N2CCCC2C(N)=O)sc1-c1ccnc(C(C)(C)C(F)(F)F)c1
IC50 [3]: > 10 µM
IC50 [4]: > 10 µM
IC50 [5]: > 10 µM
IC50 [6]: > 10 µM
IC50 (curve of first compound, second compound 3.16 µM): > 10 µM
IC50 (curve of first compound, second compound 10 µM): > 10 µM
viability, T/C [11]: 94.5%
viability, T/C [12]: 100%
viability, T/C [19]: 96.8%
viability, T/C [20]: 114%
viability, T/C [21]: 126%
viability, T/C [22]: 112%
viability, T/C [13]: 94.8%
viability, T/C [14]: 111%
viability, T/C [23]: 96.6%
viability, T/C [24]: 110%
viability, T/C [25]: 129%
viability, T/C [26]: 107%
viability, T/C [15]: 97.9%
viability, T/C [16]: 86.9%
viability, T/C [27]: 94.7%
viability, T/C [28]: 113%
viability, T/C [29]: 94.7%
viability, T/C [30]: 84.7%
viability, T/C [17]: 94%
viability, T/C [18]: 76.7%
viability, T/C [31]: 107%
viability, T/C [32]: 83%
viability, T/C [33]: 88.5%
viability, T/C [34]: 85.2%
viability, T/C (second compound 3.16 µM, first compound 0.0316 µM): 80.4%
viability, T/C (second compound 3.16 µM, first compound 0.1 µM): 73.5%
viability, T/C (second compound 3.16 µM, first compound 0.316 µM): 68.6%
viability, T/C (second compound 3.16 µM, first compound 1 µM): 73.3%
viability, T/C (second compound 3.16 µM, first compound 3.16 µM): 93.5%
viability, T/C (second compound 3.16 µM, first compound 10 µM): 82.2%
viability, T/C (second compound 10 µM, first compound 0.0316 µM): 69.1%
viability, T/C (second compound 10 µM, first compound 0.1 µM): 60.5%
viability, T/C (second compound 10 µM, first compound 0.316 µM): 48.8%
viability, T/C (second compound 10 µM, first compound 1 µM): 63.5%
viability, T/C (second compound 10 µM, first compound 3.16 µM): 65.8%
viability, T/C (second compound 10 µM, first compound 10 µM): 68.9%

Cc1nc(NC(=O)N2CCCC2C(N)=O)sc1-c1ccnc(C(C)(C)C(F)(F)F)c1 (centres undefined)
viability, T/C (compound 3.16 µM): 71.5% [middle of 8 runs]
viability, T/C (compound 10 µM): 66% [middle of 8 runs]
IC50 (compound alone, run of 06/12/2023): > 10 µM
